Data reported in patent publication US20040053383A1, “Crystals of cytochrome P450 2C9, structures thereof and their use” (ASTEX TECHNOLOGY LTD., priority 2001, published 2004).

Assays:
2C9 = 2C9 (Homo sapiens, UniProt P11712); settings: cited from earlier work; for Ki: read-out: 2C9 Published data, Ki, published
2C9-FGloop K206E = 2C9-FGloop K206E (Homo sapiens, UniProt P11712, C216Y/I215V/I222L/I223L/K206E/P221A/S220P); assay: biochemical
2C9trunc = 2C9trunc (Homo sapiens, UniProt P11712); assay: Inhibition assay with substrates/inhibitors of 2C9
2C19 = 2C19 (Homo sapiens, UniProt P33261); settings: protein 2C19 (published), Table 17; cited from earlier work
1600 = target: T1, 1600 (Homo sapiens, UniProt P11712, C216Y/E288V/F295L/I215V/I222L/I223L/I331V/I99H/K206E/L362I/N289I/P221A/S220P/S286N/V292A); assay: Inhibition assay on 2C9-2C19 chimera (Table 17); type: biochemical; settings: chimera 1600, Table 17
T1 construct: is residue 30 (all numbering is in relation to the full length protein), and the last residue is residue 490; made in house; host or cells: E. coli XL1 Blue

1661 = target: T2, 1661 (Homo sapiens, UniProt P11712, C216Y/I215V/I222L/I223L/I99H/K206E/N289I/P221A/S220P/S286N); assay: Inhibition assay on 2C9-2C19 chimera (Table 17); type: biochemical; settings: chimera 1661, Table 17
T2 construct: is residue 30 (all numbering is in relation to the full length protein), and the last residue is residue 490; made in house; host or cells: E. coli XL1 Blue

1632 = target: T3, 1632 (Homo sapiens, UniProt P11712, C216Y/E288V/F295L/I215V/I222L/I223L/I99H/K206E/N289I/P221A/S220P/S286N/V292A); assay: Inhibition assay on 2C9-2C19 chimera (Table 17); type: biochemical; settings: chimera 1632, Table 17
T3 construct: is residue 30 (all numbering is in relation to the full length protein), and the last residue is residue 490; made in house; host or cells: E. coli XL1 Blue

1155 = target: T4, 1155 (Homo sapiens, UniProt P11712, C216Y/I215V/I222L/I223L/K206E/P221A/S220P); assay: Inhibition assay with substrates/inhibitors of 2C19 and 2C9 (Table 17); type: biochemical; settings: protein 1155, Table 17
T4 construct: is residue 30 (all numbering is in relation to the full length protein), and the last residue is residue 490; made in house; host or cells: E. coli XL1 Blue
T4 sequence (P11712 30-490 K206E/I215V/C216Y/S220P/P221A/I222L/I223L): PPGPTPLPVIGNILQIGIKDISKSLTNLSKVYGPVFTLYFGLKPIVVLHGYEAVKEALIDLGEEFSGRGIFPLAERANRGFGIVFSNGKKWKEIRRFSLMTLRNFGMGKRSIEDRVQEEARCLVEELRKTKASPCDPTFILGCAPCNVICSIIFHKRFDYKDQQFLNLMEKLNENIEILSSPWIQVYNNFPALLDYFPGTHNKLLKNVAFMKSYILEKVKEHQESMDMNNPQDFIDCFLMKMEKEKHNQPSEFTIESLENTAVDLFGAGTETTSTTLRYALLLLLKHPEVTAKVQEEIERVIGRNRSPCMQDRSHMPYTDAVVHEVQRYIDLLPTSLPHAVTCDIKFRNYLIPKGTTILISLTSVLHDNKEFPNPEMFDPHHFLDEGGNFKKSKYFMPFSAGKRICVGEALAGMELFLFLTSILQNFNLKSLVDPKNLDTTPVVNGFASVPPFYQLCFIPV

2C9-FGloop K206E, sequence (P11712 30-490 K206E/I215V/C216Y/S220P/P221A/I222L/I223L): as above
2C9, sequence (P11712 whole entry): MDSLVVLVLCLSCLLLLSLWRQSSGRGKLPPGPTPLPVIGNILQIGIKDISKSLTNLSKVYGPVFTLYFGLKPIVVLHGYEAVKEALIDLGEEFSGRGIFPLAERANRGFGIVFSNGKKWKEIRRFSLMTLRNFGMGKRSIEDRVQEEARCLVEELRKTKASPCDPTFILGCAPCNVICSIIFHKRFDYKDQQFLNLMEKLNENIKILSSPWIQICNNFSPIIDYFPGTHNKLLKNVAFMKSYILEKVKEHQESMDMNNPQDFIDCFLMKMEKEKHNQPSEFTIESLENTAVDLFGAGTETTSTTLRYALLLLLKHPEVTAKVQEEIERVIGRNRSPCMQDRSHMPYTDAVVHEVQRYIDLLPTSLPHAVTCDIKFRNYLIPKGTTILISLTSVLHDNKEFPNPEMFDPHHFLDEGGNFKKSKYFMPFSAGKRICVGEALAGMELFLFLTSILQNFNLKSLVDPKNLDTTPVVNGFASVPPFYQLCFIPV
2C9trunc, sequence (P11712 30-490): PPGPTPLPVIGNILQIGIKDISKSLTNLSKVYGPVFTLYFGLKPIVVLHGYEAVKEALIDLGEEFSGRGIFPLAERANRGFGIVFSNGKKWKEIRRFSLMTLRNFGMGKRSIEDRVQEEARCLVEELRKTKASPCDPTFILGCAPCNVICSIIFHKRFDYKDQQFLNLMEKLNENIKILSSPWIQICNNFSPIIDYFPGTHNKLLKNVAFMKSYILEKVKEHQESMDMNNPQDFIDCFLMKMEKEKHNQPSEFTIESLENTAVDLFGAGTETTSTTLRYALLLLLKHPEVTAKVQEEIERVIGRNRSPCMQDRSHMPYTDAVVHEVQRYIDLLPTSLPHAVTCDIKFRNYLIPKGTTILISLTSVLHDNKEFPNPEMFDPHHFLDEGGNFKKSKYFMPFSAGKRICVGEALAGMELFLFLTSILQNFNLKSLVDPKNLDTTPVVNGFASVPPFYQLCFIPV
T2 sequence (P11712 30-490 I99H/K206E/I215V/C216Y/S220P/P221A/I222L/I223L/S286N/N289I): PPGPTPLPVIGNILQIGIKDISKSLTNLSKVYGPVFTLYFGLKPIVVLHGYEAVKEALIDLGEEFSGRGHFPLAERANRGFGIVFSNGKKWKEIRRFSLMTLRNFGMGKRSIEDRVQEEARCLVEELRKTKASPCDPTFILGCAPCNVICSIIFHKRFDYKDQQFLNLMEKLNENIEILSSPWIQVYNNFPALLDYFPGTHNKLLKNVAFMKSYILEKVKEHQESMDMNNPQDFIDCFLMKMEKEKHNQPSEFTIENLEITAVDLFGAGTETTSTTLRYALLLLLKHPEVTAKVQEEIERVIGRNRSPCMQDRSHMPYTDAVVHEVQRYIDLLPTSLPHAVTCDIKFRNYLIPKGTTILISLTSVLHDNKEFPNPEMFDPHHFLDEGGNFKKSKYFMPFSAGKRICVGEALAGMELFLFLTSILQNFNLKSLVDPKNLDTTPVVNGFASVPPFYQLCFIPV
T3 sequence (P11712 30-490 I99H/K206E/I215V/C216Y/S220P/P221A/I222L/I223L/S286N/E288V/N289I/V292A/F295L): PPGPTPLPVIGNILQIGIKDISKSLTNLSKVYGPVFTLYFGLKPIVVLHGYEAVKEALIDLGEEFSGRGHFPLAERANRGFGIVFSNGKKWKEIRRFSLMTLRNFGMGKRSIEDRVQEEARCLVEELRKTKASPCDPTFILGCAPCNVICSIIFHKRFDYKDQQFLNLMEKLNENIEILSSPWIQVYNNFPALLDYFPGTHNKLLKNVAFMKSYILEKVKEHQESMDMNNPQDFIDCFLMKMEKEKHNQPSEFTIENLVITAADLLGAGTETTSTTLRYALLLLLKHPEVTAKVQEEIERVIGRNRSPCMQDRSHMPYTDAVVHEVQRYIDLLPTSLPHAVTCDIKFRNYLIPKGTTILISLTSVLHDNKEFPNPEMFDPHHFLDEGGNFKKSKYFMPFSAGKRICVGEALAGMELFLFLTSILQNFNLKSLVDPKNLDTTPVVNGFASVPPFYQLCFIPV
T1 sequence (P11712 30-490 I99H/K206E/I215V/C216Y/S220P/P221A/I222L/I223L/S286N/E288V/N289I/V292A/F295L/I331V/L362I): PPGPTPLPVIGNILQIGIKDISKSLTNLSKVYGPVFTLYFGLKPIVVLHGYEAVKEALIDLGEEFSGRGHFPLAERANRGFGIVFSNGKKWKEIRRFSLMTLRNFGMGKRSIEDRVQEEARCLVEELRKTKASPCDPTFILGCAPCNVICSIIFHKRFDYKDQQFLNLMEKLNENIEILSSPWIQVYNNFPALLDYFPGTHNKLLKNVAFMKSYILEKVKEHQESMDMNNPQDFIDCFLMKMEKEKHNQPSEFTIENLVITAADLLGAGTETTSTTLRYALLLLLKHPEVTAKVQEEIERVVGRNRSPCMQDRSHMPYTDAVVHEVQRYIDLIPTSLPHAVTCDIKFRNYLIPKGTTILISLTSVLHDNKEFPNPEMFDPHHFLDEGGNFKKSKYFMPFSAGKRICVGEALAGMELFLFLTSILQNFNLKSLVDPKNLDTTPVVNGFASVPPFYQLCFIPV
2C19, sequence (P33261 whole entry): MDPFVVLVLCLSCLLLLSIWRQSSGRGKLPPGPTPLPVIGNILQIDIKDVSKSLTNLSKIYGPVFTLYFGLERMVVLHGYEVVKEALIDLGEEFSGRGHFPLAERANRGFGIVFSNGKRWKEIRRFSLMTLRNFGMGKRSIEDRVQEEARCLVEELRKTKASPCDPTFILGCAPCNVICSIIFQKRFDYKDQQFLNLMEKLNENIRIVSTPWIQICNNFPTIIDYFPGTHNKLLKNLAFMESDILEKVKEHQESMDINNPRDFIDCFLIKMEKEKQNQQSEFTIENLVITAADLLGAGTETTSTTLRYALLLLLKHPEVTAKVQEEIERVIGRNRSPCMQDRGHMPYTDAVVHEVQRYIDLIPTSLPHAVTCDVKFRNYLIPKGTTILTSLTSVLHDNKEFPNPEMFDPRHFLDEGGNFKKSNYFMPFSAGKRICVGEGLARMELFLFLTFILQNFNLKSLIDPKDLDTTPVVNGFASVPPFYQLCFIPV

| SMILES | IC50 (2C9-FGloop K206E) [nM] | Ki (2C9-FGloop K206E) [nM] | IC50 (2C9trunc) [nM] | Ki (2C9trunc) [nM] | Km (2C9) [µM] | Ki (2C19) [nM] | Ki (2C9) [nM] | Ki […] [nM] | Ki 1661 [nM] | Ki 1632 [nM] | Ki 1155 [nM] |
| --- | --- | --- | --- | --- | --- | --- | --- | --- | --- | --- | --- |
| CC(C)(c1ccc(O)cc1)c1ccc(O)cc1 [Bisphenol A] | 7800 | 3300 | 4800 | 2900 | 4 |  |  |  |  |  |  |
| O=C(O)Cc1ccccc1Nc1c(Cl)cccc1Cl [Diclofenac] |  |  |  |  |  | 231000 |  |  |  |  |  |
| CNCCC(Oc1ccc(C(F)(F)F)cc1)c1ccccc1 (stereo not shown) [Fluoxetine] | 2100 | 4100 | 1500 | 1500 |  |  | 13000 |  |  |  |  |
| COCCCC/C(=N\OCCN)c1ccc(C(F)(F)F)cc1 [Fluvoxamine] | 400 | 850 | 600 | 700 |  |  | 2000 to 5000 | < 1000 | 500 | 1600 | 400 |
| CN1C(C(=O)Nc2ccccn2)=C(O)c2ccccc2S1(=O)=O [Piroxicam] |  |  |  |  |  | 133000 |  | > 100000 | > 100000 | > 100000 | 30000 |
